Experimental data published in patent US12433961B2, “Near-infrared fluorescent probe specifically targeting tumors as well as synthesis method and use thereof” (NANJING NUOYUAN MEDICAL INSTRUMENT CO. LTD, priority 2022, dated 2025).

Test system: colorectal cancer HT29 subcutaneous tumor
Test: In-vivo near-infrared fluorescence imaging in subcutaneous HT29 tumor-bearing mouse model
Conditions: HT29 tumor-bearing mice, 30 nmol tail vein, imaging 0 h-48 h
Description: In a subcutaneous tumor HT29 tumor-bearing mouse model, YQ-H (30 nmol, dissolved with 100 μL of normal saline for injection) series probes respectively underwent tail vein administration, fluorescence imaging was respectively photographed at different time points (0 h, 6 h, 12 h, 24 h and 48 h in sequence) by small animal living imaging CCD.

## CC1(C)C(/C=C/C2=C(SCCC(=O)NCCCCCC(=O)N(CCS(C)(=O)=O)Cc3ccc(-c4ccc5ncnc(Nc6ccc(OCc7cccc(F)c7)c(Cl)c6)c5c4)o3)C(=C/C=C3/N(CCCS(=O)(=O)O)c4ccc(S(=O)(=O)O)cc4C3(C)C)/CCC2)=[N+](CCCS(=O)(=O)O)c2ccc(S(=O)(=O)[O-])cc21 [YQ-H-03]
  fluorescence signals in liver: strong fluorescence signals in liver
  tumor targeting effect: a certain tumor targeting effect
